The source of these data is patent US20250179103A1, “6-OXODECAHYDROPYRROLO[1,2-A][1,5]DIAZOCINE AND 6-OXODECAHYDRO-4H-PYRROLO[2,1-D][1,5]THIAZOCINE DERIVATIVES AS STAT3 AND STAT6 MODULATORS FOR THE TREATMENT OF CANCER AND INFLAMMATORY CONDITIONS” (Recludix Pharma, Inc., priority 2022, published 2025).

The term IC50 denotes the midpoint of a concentration-inhibition curve.

Experiment [1] concerns the target T1, Recombinant STAT3 protein (STAT3(G127-I722)) (Homo sapiens, UniProt P40763).
T1 construct: Recombinant STAT3 protein (STAT3(G127-I722))
Nature of the experiment: STAT3 Fluorescence Polarization (FP) Assay. It counts as binding. As to conditions: STAT3(G127-I722) 25 nM, probe 5-FAM-GpYLPQTV-NH2 2 nM, 45-minute incubation. The method, boiled down: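 Fluorescence polarization after a 45-min room-temperature incubation measured compound displacement of a 2 nM fluorescein-labelled phosphotyrosine peptide (5-FAM-GpYLPQTV-NH2) from 25 nM recombinant STAT3(G127-I722). Buffer was 10 mM HEPES pH 7.4 with 1% DMSO final. IC50s were fitted by nonlinear regression of mP against log concentration.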
(In fluorescence polarisation assays a small probe gives low polarisation when free and higher when bound to something large.)

The target of experiment [2] is T2, Recombinant STAT6 protein (STAT6(W123-T658)) (Homo sapiens, UniProt P42226).
T2 construct: Recombinant STAT6 protein (STAT6(W123-T658))
T2 sequence (P42226 123-658): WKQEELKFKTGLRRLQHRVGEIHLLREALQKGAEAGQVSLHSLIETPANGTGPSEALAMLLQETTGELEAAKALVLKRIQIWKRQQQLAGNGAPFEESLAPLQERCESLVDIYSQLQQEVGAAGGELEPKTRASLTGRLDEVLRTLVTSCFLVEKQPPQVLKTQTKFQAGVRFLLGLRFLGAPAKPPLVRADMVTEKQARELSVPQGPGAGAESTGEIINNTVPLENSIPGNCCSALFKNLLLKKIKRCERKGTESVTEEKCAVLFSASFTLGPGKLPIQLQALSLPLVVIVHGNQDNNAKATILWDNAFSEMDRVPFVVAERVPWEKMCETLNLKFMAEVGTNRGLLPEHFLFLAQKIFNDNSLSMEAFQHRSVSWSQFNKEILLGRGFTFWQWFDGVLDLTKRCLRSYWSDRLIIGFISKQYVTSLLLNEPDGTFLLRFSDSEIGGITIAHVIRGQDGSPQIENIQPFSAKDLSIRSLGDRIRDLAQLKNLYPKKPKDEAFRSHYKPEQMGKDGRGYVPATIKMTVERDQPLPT
The experiment can be described thus: STAT6 Fluorescence Polarization (FP) Assay. The format is binding. The settings on record: STAT6(W123-T658) 250 nM, probe 5-FAM-ApYKPFQDLI-NH2 2 nM, 45-minute incubation. The procedure, abridged:
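Displacement of a fluorescent phosphotyrosine peptide (5-FAM-ApYKPFQDLI-NH2, 2 nM) from STAT6(W123-T658) (250 nM), 1% DMSO, pH 7.4 HEPES buffer. After 45 min at room temperature, polarization (mP) was plotted versus log compound concentration and fitted by nonlinear regression to give IC50.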

T1 sequence (P40763 127-722): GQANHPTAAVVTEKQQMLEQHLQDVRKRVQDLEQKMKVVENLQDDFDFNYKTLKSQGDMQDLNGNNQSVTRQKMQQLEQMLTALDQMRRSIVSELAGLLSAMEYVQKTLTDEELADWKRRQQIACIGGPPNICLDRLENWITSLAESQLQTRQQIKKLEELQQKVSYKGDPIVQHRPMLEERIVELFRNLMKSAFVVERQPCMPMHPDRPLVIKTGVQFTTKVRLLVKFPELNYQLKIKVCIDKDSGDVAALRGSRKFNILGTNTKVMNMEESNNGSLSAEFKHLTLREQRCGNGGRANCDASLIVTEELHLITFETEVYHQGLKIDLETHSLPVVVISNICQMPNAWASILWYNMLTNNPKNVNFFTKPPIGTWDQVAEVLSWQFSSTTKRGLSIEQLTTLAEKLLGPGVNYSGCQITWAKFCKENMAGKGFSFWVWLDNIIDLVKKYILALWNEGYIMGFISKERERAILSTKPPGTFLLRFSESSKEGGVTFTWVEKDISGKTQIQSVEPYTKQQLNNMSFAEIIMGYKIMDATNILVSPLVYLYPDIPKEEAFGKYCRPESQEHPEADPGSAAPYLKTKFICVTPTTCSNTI

Regarding `CN1CCN(c2ccc(C(=O)N3CC[C@H]4CC[C@@H](C(=O)N5CC(c6cccnc6)C5)N4C(=O)[C@@H](NC(=O)c4cc5cc(C(F)(F)P(=O)(O)O)ccc5s4)C3)c(Cl)c2)CC1` [Compound 403, ((2-(((5S,8S,10aR)-3-(2-chloro-4-(4-methylpiperazin-1-yl)benzoyl)-6-oxo-8-(3-(pyridin-3-yl)azetidine-1-carbonyl)decahydropyrrolo[1,2-a][1,5]diazocin-5-yl)carbamoyl)benzo[b]thiophen-5-yl)difluoromethyl) phophonic acid], the half-maximal inhibitory concentration (IC50) in experiment [1] is at most 0.1 µM; in experiment [2], 3 to 30 µM.
The like results for `CC(C)C(=O)N1CC[C@H]2CC[C@@H](C(=O)N(C)c3ccccc3)N2C(=O)[C@@H](NC(=O)c2cc3cc(C(F)(F)P(=O)(O)O)ccc3[nH]2)C1` [Compound 221, (difluoro(2-(((5S,8S,10aR)-3-isobutyryl-8-(methyl(phenyl)carbamoyl)-6-oxodecahydropyrrolo[1,2-a][1,5]diazocin-5-yl)carbamoyl)-1H-indol-5-yl)methyl)phosphonic acid] were, in that order, 1 to 10 µM and 0.3 to 3 µM.
The like results for `CC(=O)N1CC[C@H]2CC[C@@H](C(=O)Nc3ccc4ncncc4c3)N2C(=O)[C@@H](NC(=O)c2cc3cc(C(F)(F)P(=O)(O)O)ccc3s2)C1` [Compound 172, ((2-(((5S,8S,10aR)-3-acetyl-6-oxo-8-(quinazolin-6-ylcarbamoyl)decahydropyrrolo[1,2-a][1,5]diazocin-5-yl)carbamoyl)benzo[b]thiophen-5-yl)difluoromethyl)phosphonic acid] were, in that order, 1 to 10 µM and 0.3 to 3 µM.
The like results for `CN(C)C(=O)[C@@H]1CC[C@@H]2CCN(c3ccccc3)C[C@H](NC(=O)c3cc4cc(C(F)(F)P(=O)(O)O)ccc4[nH]3)C(=O)N21` [Compound 223, ((2-(((5S,8S,10aR)-8-(dimethylcarbamoyl)-6-oxo-3-phenyldecahydropyrrolo[1,2-a][1,5]diazocin-5-yl)carbamoyl)-1H-indol-5-yl)difluoromethyl)phosphonic acid] were, in that order, 1 to 10 µM and 0.3 to 3 µM.
On to `CC(=O)N1CC[C@H]2CC[C@@H](C(=O)N3CC(C(=O)N4CCN(C)CC4)C3)N2C(=O)[C@@H](NC(=O)c2cc3cc(C(F)(F)P(=O)(O)O)ccc3s2)C1` [Compound 195, ((2-(((5S,8S,10aR)-3-acetyl-8-(3-(4-methylpiperazine-1-carbonyl)azetidine-1-carbonyl)-6-oxodecahydropyrrolo[1,2-a][1,5]diazocin-5-yl)carbamoyl)benzo[b]thiophen-5-yl)difluoromethyl)phosphonic acid], for which the IC50 in experiment [1] was in the range of 1 to 10 µM; in experiment [2] it was 0.3 to 3 µM.
As for `CC(=O)N1CC[C@H]2CC[C@@H](C(=O)N3C[C@H](c4ccccc4)[C@@H](C#N)C3)N2C(=O)[C@@H](NC(=O)c2cc3cc(C(F)(F)P(=O)(O)O)ccc3[nH]2)C1` (single isomer, unassigned) [Compound 138, ((2-(((5S,8S,10aR)-3-acetyl-8-((3R,4S or 3S,4R)-3-cyano-4-phenylpyrrolidine-1-carbonyl)-6-oxodecahydropyrrolo[1,2-a][1,5]diazocin-5-yl)carbamoyl)-1H-indol-5-yl)difluoromethyl)phosphonic acid], the IC50 in experiment [1] was 1 to 10 µM; in experiment [2], at most 0.3 µM.
For `CN(C(=O)[C@@H]1CC[C@@H]2CCN(CC(F)(F)F)C[C@H](NC(=O)c3cc4cc(C(F)(F)P(=O)(O)O)ccc4[nH]3)C(=O)N21)c1ccccc1` [Compound 219, (difluoro(2-(((5S,8S,10aR)-8-(methyl(phenyl)carbamoyl)-6-oxo-3-(2,2,2-trifluoroethyl)decahydropyrrolo[1,2-a][1,5]diazocin-5-yl)carbamoyl)-1H-indol-5-yl)methyl)phosphonic acid], the 50% inhibitory concentration (IC50) in experiment [1] lay within 1 to 10 µM; in experiment [2], 0.3 to 3 µM.
The matching figures for `CC(=O)N1CC[C@H]2CC[C@@H](C(=O)N(C)c3ccc(-c4ccccc4)cc3)N2C(=O)[C@@H](NC(=O)c2cc3cc(C(F)(F)P(=O)(O)O)ccc3[nH]2)C1` [Compound 53, ((2-(((5S,8S,10aR)-8-([1,1′-biphenyl]-4-yl(methyl)carbamoyl)-3-acetyl-6-oxodecahydropyrrolo[1,2-a][1,5]diazocin-5-yl)carbamoyl)-1H-indol-5-yl)difluoromethyl)phosphonic acid]: 1 to 10 µM and 0.3 to 3 µM.
The matching figures for `Cc1ccc2onc(C(=O)N3CC[C@H]4CC[C@@H](C(=O)N5CCOC[C@@H]5c5ccccc5)N4C(=O)[C@@H](NC(=O)c4ccc5ccc(C(F)P(=O)(O)O)cc5c4)C3)c2c1` (stereo partly drawn) [Compound 370, (fluoro(7-(((5S,8S, 10aR)-3-(5-methylbenzo[d]isoxazole-3-carbonyl)-6-oxo-((S)-3-phenylmorpholine-4-carbonyl)decahydro-pyrrolo[1,2-a] [1,5]diazocin-5-yl)carbamoyl)naphthalen-2-yl)methyl)phosphonic acid]: over 10 µM and at most 0.3 µM.
The matching figures for `CC(=O)N1CC[C@H]2CC[C@@H](C(=O)N3C[C@@H](C#N)C[C@H](c4ccccc4)C3)N2C(=O)[C@@H](NC(=O)c2cc3cc(C(F)(F)P(=O)(O)O)ccc3s2)C1` (relative stereo) [Compound 153, ((2-(((5S,8S,10aR)-3-acetyl-8-((rel-trans)-3-cyano-5-phenylpiperidine-1-carbonyl)-6-oxodecahydropyrrolo[1,2-a][1,5]diazocin-5-yl)carbamoyl)benzo[b]thiophen-5-yl)difluoromethyl)phosphonic acid]: 1 to 10 µM and 0.3 to 3 µM.
For the compound `CC(=O)N1CC[C@H]2CC[C@@H](C(=O)N(C)c3ccccc3)N2C(=O)[C@@H](NC(=O)c2cc3cc(C(C)(F)P(=O)(O)O)ccc3s2)C1` (stereo partly drawn) [Compound 18, (1-(2-(((5S,8S,10aR)-3-acetyl-8-(methyl(phenyl)carbamoyl)-6-oxodecahydropyrrolo[1,2-a][1,5]diazocin-5-yl)carbamoyl)benzo[b]thiophen-5-yl)-1-fluoroethyl)phosphonic acid], the IC50 in experiment [1] was over 10 µM; in experiment [2], 3 to 30 µM.
The matching figures for `COc1cccc(N(C)C(=O)[C@@H]2CC[C@@H]3CCN(C(C)=O)C[C@H](NC(=O)c4cc5cc(C(F)(F)P(=O)(O)O)ccc5[nH]4)C(=O)N32)c1` [Compound 165, ((2-(((5S,8S,10aR)-3-acetyl-8-((3-methoxyphenyl)(methyl)carbamoyl)-6-oxodecahydropyrrolo[1,2-a][1,5]diazocin-5-yl)carbamoyl)-1H-indol-5-yl)difluoromethyl)phosphonic acid]: 1 to 10 µM and 0.3 to 3 µM.
The matching figures for `CC(=O)N1CC[C@H]2CC[C@@H](C(=O)N(C)c3ccc(C4(C)COC4)cc3)N2C(=O)[C@@H](NC(=O)c2cc3cc(C(F)(F)P(=O)(O)O)ccc3s2)C1` [Compound 47, ((2-(((5S,8S,10aR)-3-acetyl-8-(methyl(4-(3-methyloxetan-3-yl)phenyl)carbamoyl)-6-oxodecahydropyrrolo[1,2-a][1,5]diazocin-5-yl)carbamoyl)benzo[b]thiophen-5-yl)difluoromethyl)phosphonic acid]: 1 to 10 µM and 0.3 to 3 µM.
